Assay results published in patent US20080181961A1, “AMORPHOUS OXCARBAZEPINE AND THE PRODUCTION THEREOF” (ISP INVESTMENTS, INC., priority 2007, published 2008).

Assay: Aqueous release, USP apparatus II (paddles), water with 6% Cremophor EL (sink conditions)
Assay type: physicochemical
Conditions: 37° C., 100 rpm to 60 minutes then 200 rpm for 15 minutes, 600 mg dose, FIG. 2
Method: Dissolution profiles can be determined using USP apparatus II (paddles) (VK 7010®, Varian Inc.), with a bath temperature of 37° C. and a paddle speed of 100 rpm for 60 minutes, followed by a paddle speed of 200 rpm for an additional 15 minutes.
The aqueous release of the spray dried powder was measured using USP apparatus II (paddles) at 37° C. in water with 6% Cremophor EL. The paddle speed was 100 rpm for the first 60 minutes, and then the paddle speed was increased to 200 rpm for an additional 15 minutes. A dose equivalent to 600 mg oxcarbazepine was filled into hard gelatin capsules (Qualicaps, Shionogi). This media creates sink conditions for the tested dose. • 5.
The release profile of this spray dried product was measured using the same dissolution method of Example 1, that is, in media that creates sink conditions for the tested dose. • 5.

NC(=O)N1c2ccccc2CC(=O)c2ccccc21 [crystalline oxcarbazepine, 10,11-dihydro-10-oxo-5H-dibenz[b,f]azepine-5-carboxamide]
oxcarbazepine release after the first 15 minutes: remained essentially constant
